The source made the active and inactive calls. No rule for the calls is given here.

In the experiment the test system is CHOP reporter cell assay, percent of control. The experiment can be described thus: CHOP reporter inhibitor potency, dose response, cell-based (AID 504322).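 Also: CHO cells carrying a CHOP reporter stimulated with tunicamycin to induce ER stress; potency is for inhibition of the stress-induced reporter signal.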

In general, IC50 refers to the point on the concentration scale where inhibition reaches its midpoint. For `CCOC(=O)c1c(C)[nH]c2c1-c1ccccc1C(=O)C2=O`, the half-maximal inhibitory concentration (IC50) is 2.38 µM.

On to `CCc1ccc(/C=C2\SC(=S)N(CCCC(=O)Nc3ccccn3)C2=O)cc1`, for which the IC50 was 0.16 µM.

On to `C/C(=N\OCc1cccc(C(=O)O)c1)c1ccc(Cl)cc1`, for which the IC50 is 6 µM (inactive).

For the molecule `Cc1ccc(NN2C(=O)C=C(c3ccc(Cl)cc3)C2=O)cc1`, the IC50 was 2.09 µM.

Take `Cc1cccc(NC(=S)NC(NC(=O)OCc2ccccc2)C(Cl)(Cl)Cl)c1` (configuration not stated): the IC50 is 9.44 µM (inactive).

Consider `CCOC(=O)c1c(C)[nH]c(C(=O)COC(=O)c2[nH]c(C)c(C(C)=O)c2C)c1C`, for which the IC50 was > 10 µM (inactive).

As to `Oc1ccc(Oc2ccc3c(C(F)(F)F)cc(C(F)(F)F)nc3n2)cc1`, the IC50 was 9.36 µM (inactive).

`CN1CC(c2ccccc2)C2(SC(=S)N(Cc3ccco3)C2=O)C12C(=O)Nc1ccccc12` (configuration not stated): the IC50 was > 10 µM (inactive).

Regarding `Cc1ccc(C(C)C)c(OCC(=O)N/N=C/C2CCCCC2)c1`, the IC50 is 9.65 µM (inactive).

In the case of `CC[C@@H]1CC=C[C@H]2[C@H]1C(=O)N(Cc1ccccc1)[C@H]2c1ccoc1`, the IC50 was 9.62 µM (inactive).

Consider `CCOC(=O)c1cc([N+](=O)[O-])c([N+](=O)[O-])cc1NC(C)=O`, for which the IC50 is 4.24 µM.

`CC(C)c1ccc(NC(=O)CSc2nc(-c3ccccc3F)nc3nc[nH]c23)cc1`: the IC50 was 9.99 µM (inactive).

Regarding `CCOc1cc(/C=N/NC(=O)COc2cccc(C)c2)ccc1OC(=O)c1cccs1`, the IC50 was > 10 µM (inactive).

In the case of `Cc1cc(Cl)n2c(nc3ccccc32)c1C#N`, the IC50 is > 10 µM (inactive).

As for `OC1(c2cccc(C(F)(F)F)c2)CCN(c2ncnc3c2[nH]c2ccc(F)cc23)CC1`, the IC50 is 4.54 µM (inactive).

For the molecule `Cc1ccc(/C=N/NC(=O)CCCOc2ccc(Cl)cc2Cl)cc1`, the IC50 is 7.92 µM (inactive).

Regarding `C=CCOC(=O)C1=C(C)NC(SCC(=O)Nc2nccs2)=C(C#N)C1c1ccc(Cl)cc1` (configuration not stated), the IC50 is 9.67 µM (inactive).

For `Cc1[nH]n(-c2ccccc2)c(=O)c1/C=C1/C=c2ccccc2=N1`, the IC50 was 9.74 µM (inactive).

On to `Cc1[nH]c2ccccc2c1/C=N/NC(=O)C1CC1(c1ccccc1)c1ccccc1` (configuration not stated), for which the IC50 is > 10 µM (inactive).

In the case of `O=[N+]([O-])c1ccc(-c2nc(C(Cl)Cl)c3ccccc3n2)cc1`, the IC50 was 0.19 µM.

On to `CC1=CC(C)(C)N(C(=O)c2ccc(F)cc2)c2cc3c(cc21)OCO3`, for which the IC50 was 5.31 µM (inactive).

Consider `Oc1ccc(Br)cc1-c1cc(-c2ccccc2F)[nH]n1`, for which the IC50 was > 10 µM (inactive).

Regarding `Nc1cc(Cl)c2nonc2c1[N+](=O)[O-]`, the IC50 is 5.89 µM (inactive).

Consider `CCCOC(=O)c1ccc(Oc2cn[nH]c2-c2ccc(OCC)cc2O)cc1`, for which the IC50 was 9.56 µM (inactive).

In the case of `Cc1cc(C)c(S(=O)(=O)c2ccccc2)c(OC(=O)c2cc(F)c(F)cc2Cl)n1`, the IC50 was 8.2 µM (inactive).

Regarding `COc1cccc(N2CCN(c3ncnc4c3[nH]c3ccccc34)CC2C)c1` (configuration not stated), the IC50 is 4.13 µM.

With `O=c1c(Cl)c(Cl)cnn1-c1ccccc1`, the IC50 is 9.45 µM (inactive).

Turning to `CC(C)c1ccc2c(c1)C1(NN=C(c3ccccc3)S1)C(=O)N2` (configuration not stated), the IC50 was > 10 µM (inactive).

Consider `O=c1c(Cl)nc2cc(Cl)ccc2n1CCNc1ncc(C(F)(F)F)cc1Cl`, for which the 50% inhibitory concentration (IC50) is 2.49 µM.

Take `CC(C)Cn1c(=O)[nH]c(=O)c2c(C(F)(F)F)cc(-c3ccccc3)nc21`: the IC50 is > 10 µM (inactive).

For `COCCCn1c(N)c(C(=O)NCCC(C)C)c2nc3ccccc3nc21`, the IC50 is 9.46 µM (inactive).

On to `CCCCCCn1c(=O)c(C(=O)N/N=C/c2cccc(F)c2)c(O)c2ccccc21`, for which the IC50 is 7.03 µM (inactive).

As for `C[C@H](NC(=O)c1[nH]cnc1C(=O)Nc1ccc(CNC(=O)OC(C)(C)C)cc1)C(=O)OC(C)(C)C`, the IC50 is > 10 µM (inactive).

For `C=C(C)COc1ccc(-c2[nH]ncc2Oc2ccccc2OCC)c(O)c1`, the IC50 is 1.94 µM.

For `C=C(C)C(=O)OC1(C(F)(F)F)Oc2cc(C)ccc2NC1=O` (configuration not stated), the IC50 is 5.82 µM (inactive).

For the molecule `Cc1ccc(NC(=O)CCl)cc1S(=O)(=O)N1CCCCCC1`, the IC50 was > 10 µM (inactive).

Consider `Cc1cc(/C=N/n2cnnc2)c(C)n1-c1ccc(OCc2ccc(F)cc2)cc1`, for which the IC50 was 0.67 µM (inactive).

For `O=c1oc2ccccc2c(Cl)c1CN1CCCCC1`, the IC50 is 9.26 µM (inactive).

As to `O=C(CN1CCN(c2ncc(C(F)(F)F)cc2Cl)CC1)NCCNc1ncc(C(F)(F)F)cc1Cl`, the IC50 was 3.88 µM.

As to `COc1cccc(-c2nnc(NC(=O)c3ccc(S(=O)(=O)N(CC(C)C)CC(C)C)cc3)o2)c1`, the half-inhibitory concentration (IC50) is 4.13 µM.

As for `CCN1/C(=C\C=C\C2=[N+](CC)c3ccccc3C2(C)C)C(C)(C)c2ccccc21`, the IC50 is 0.32 µM (inactive).

In the case of `CCCCCCCn1c(=O)c(C(=O)Nc2cnccn2)c(O)c2ccccc21`, the half-inhibitory concentration (IC50) was 3.68 µM.

For `CCCCCCSc1nsc(NC(=O)CCC)n1`, the IC50 was 9.9 µM (inactive).

Take `CCN1CCN(Cc2ccc(NC(=O)c3ccc(C)c(NC(=O)c4c[nH]c5cc(C(F)(F)F)ccc5c4=O)c3)cc2C(F)(F)F)CC1`: the IC50 is 4.74 µM.

With `CCSc1nc(-c2ccccc2)nc(C(Cl)Cl)n1`, the IC50 was 6.32 µM (inactive).

Consider `CCOc1ccc(-c2cc(CCCC(=O)NCc3ccc(C)cc3)no2)cc1`, for which the IC50 was 5.91 µM (inactive).

With `Cc1ccc(OCC(=O)N2N=C(C(F)(F)F)CC2(O)C(C)(C)C)cc1C` (configuration not stated), the IC50 was 5.25 µM (inactive).

Consider `CC(C)(C)c1ccc(C(=O)NC(=S)NNC(=O)c2cccs2)cc1`, for which the IC50 is 6.3 µM (inactive).

For `O=C(OCn1ncc(Br)c(Br)c1=O)c1ccccc1Cl`, the IC50 is 2.84 µM.

On to `Cc1nc2c(=O)n(C)c(=O)n(C)c2nc1Cl`, for which the IC50 was 3.79 µM (inactive).

Take `CCCCCC1CC(CC(=O)Nc2ccc([N+](=O)[O-])cc2)C(=O)O1` (configuration not stated): the IC50 is 9.17 µM (inactive).

In the case of `COc1ccc(NC(=O)/C(Cl)=C(/Cl)S(=O)Cc2ccc(Cl)cc2)cn1` (configuration not stated), the IC50 was 1.99 µM.

In the case of `CC(C)C(=O)N1CCC(CN=Cc2c(O)n(C3CCCCC3)c(=O)n(C3CCCCC3)c2=O)CC1`, the IC50 is 9.9 µM (inactive).

For `O=S(=O)(Nc1ccccc1)c1ccc(Oc2ncc(C(F)(F)F)cc2Cl)cc1`, the IC50 is > 10 µM (inactive).

On to `C=CCn1c(COc2ccccc2)nnc1SC(C)C(=O)N/N=C/c1cc(Cl)ccc1O` (configuration not stated), for which the IC50 was 9.66 µM (inactive).

For the molecule `Cc1ccc2nc(NC(=O)C3CCN(S(=O)(=O)c4cc([N+](=O)[O-])ccc4Cl)CC3)sc2c1`, the IC50 is 3.51 µM.

As for `Cc1ccc(S(=O)(=O)CC#CCOC(=O)c2ccc([N+](=O)[O-])cc2)cc1`, the IC50 is > 10 µM (inactive).

With `O=C(CCl)Nc1cc(-c2ccccc2)nn1-c1ccccc1`, the IC50 was 9.78 µM (inactive).

In the case of `O=C(CCl)N(Cc1cccc([N+](=O)[O-])c1)c1cccc(Cl)c1`, the IC50 was 9.39 µM (inactive).

Consider `O=C1/C(=C/c2ccncc2)SC(=S)N1C1CCS(=O)(=O)C1` (configuration not stated), for which the IC50 was 9.91 µM (inactive).

Turning to `C/C(=N\N=C1\NC(=O)C(CC(=O)Nc2ccc(C)c(Cl)c2)S1)C(C)(C)C` (configuration not stated), the IC50 was 9.43 µM (inactive).

Consider `N#CC1=C(N)N2C(=C(C#N)C1c1ccc(Br)cc1)Nc1ccccc12` (configuration not stated), for which the IC50 is > 10 µM (inactive).

As for `COc1ccc(C(=O)NNC(=O)c2ccccn2)cc1`, the IC50 is 3.12 µM (inactive).

For the molecule `CC(=O)/C=C/n1c(=S)oc2ccccc21`, the concentration for half-maximal inhibition (IC50) was 4.65 µM.

For `O=C1CC(c2cccc(Cl)c2)CC(O)=C1C=Nc1cccc(Cl)c1` (configuration not stated), the IC50 was 9.72 µM (inactive).

With `Cc1ccc(Cl)cc1NC1=C/C(=N\S(=O)(=O)c2cccs2)c2ccccc2C1=O`, the 50% inhibitory concentration (IC50) is 3.94 µM.

In the case of `COc1ccc(OCc2n(CC(=O)OC3CC(C)CCC3C(C)C)c3ccccc3[n+]2C)cc1` (configuration not stated), the IC50 was > 10 µM (inactive).

Take `Cc1ccc(NC(=O)NC(=O)CN2C(=O)NC3(CCCCCCC3)C2=O)c(C)c1`: the IC50 was 9.53 µM (inactive).

With `Cn1c(=O)c([N+](=O)[O-])c(Cl)c2ccccc21`, the half-inhibitory concentration (IC50) was 3.34 µM.

`Cc1nnc(NC(=O)c2sc3nc(-c4cccs4)cc(C(F)(F)F)c3c2N)s1`: the IC50 is 5.97 µM (inactive).

With `CC(C)(C)C(=O)c1no[n+]([O-])c1/C(=N/O)C(C)(C)C`, the IC50 is 7.23 µM (inactive).

Turning to `CC(CNC(=S)Nc1cc(F)cc(F)c1)CSc1ccc(Cl)cc1` (configuration not stated), the IC50 is > 10 µM (inactive).

Regarding `CCCc1cc(=O)[nH]c(Nc2ccc(N3CCCCC3)cc2)n1`, the IC50 is 7.76 µM (inactive).

`O=C1CC(c2ccccc2)CC(O)=C1C=Nc1cccc(Cl)c1` (configuration not stated): the IC50 was 5.16 µM.

Turning to `CCCOC(=O)c1ccc(Oc2cn[nH]c2-c2ccc(OC)cc2O)cc1`, the IC50 was 9.32 µM (inactive).

Take `CC1CN(S(=O)(=O)c2ccc(C(=O)Nc3nc(-c4cc5ccccc5o4)cs3)cc2)CC(C)O1` (configuration not stated): the IC50 is 9.56 µM (inactive).

For the molecule `C=CCc1cccc(/C=N/NC(=O)CCCNc2ccc(C)cc2)c1O`, the IC50 is 9.23 µM (inactive).

As to `CCOC(=O)/C(=C\c1ccc(OC(F)F)cc1)C1=Nn2c(nnc2-c2ccc(Cl)cc2)SC1`, the IC50 is 3.2 µM (inactive).

In the case of `Cc1nc(SCC(=O)Nc2cc(C)on2)c2c3c(sc2n1)CCCC3`, the IC50 was > 10 µM (inactive).

Consider `CCOC(=O)Cc1csc(NC(=O)NC2(C(F)(F)F)Oc3cc(Cl)c(Cl)cc3O2)n1`, for which the half-maximal inhibitory concentration (IC50) was 4.04 µM.

Regarding `O=C(Nc1cccc(-c2nc3ncccc3o2)c1)c1sc2ccccc2c1Cl`, the IC50 was 2.47 µM.

Consider `CC(C)(C)c1ccc(O)c(N=Cc2cc(Br)ccc2O)c1`, for which the IC50 is 9.15 µM (inactive).

As for `Nc1cc(Cl)ccc1Oc1ccc(Cl)cc1`, the IC50 is 4.67 µM (inactive).

Take `Cc1ccc(N=Cc2cc3c(cc2O)OC(N)=C(C#N)C3c2ccccc2)cc1` (configuration not stated): the IC50 is > 10 µM (inactive).

As to `Cc1cc(-c2n[nH]c(=S)n2/N=C/C(Br)=C/c2ccccc2)n[nH]1`, the IC50 is > 10 µM (inactive).

With `O=C(/C=C/c1cccc(C(F)(F)F)c1)Nc1cccc(C(F)(F)F)c1`, the IC50 is 2.49 µM (inactive).

As for `CCCOc1ccccc1C1CC(=O)NC(C)=C1C(=O)OCC(C)C` (configuration not stated), the IC50 was 5.14 µM (inactive).

(Values after PubChem BioAssay AID504322 (Emory University Molecular Libraries Screening Center, 2011).)
